Numbered stars: 1 amine (or outer) side, 2 acyl side, 3 side chain; on linkers, the order of the positions; unused ones are H or OH. Square brackets hold non-standard residues; d marks the D form. Peptide text beside a SMILES is read from it. * marks the point of attachment. Pro(3R,4S-CMe2) = CC1(C)[C@@H]2[C@@H](C(=O)O)NC[C@@H]21; Pro(4,4-S(CH2)3S) = O=C(O)[C@@H]1CC2(CN1)SCCCS2; Pro(4,4-SCH2CH2S) = O=C(O)[C@@H]1CC2(CN1)SCCS2; X4 = O=C(C(=O)[*:2])C(CCC(F)(F)F)N[*:1]; Pro(4,4-Me2) = CC1(C)CN[C@H](C(=O)O)C1; Pro(4R-Me) = C[C@H]1CN[C@H](C(=O)O)C1; Isobutyloxycarbonyl = CC(C)COC(=O)*; X1 = O=C(C(=O)[*:2])C(CC1CC1)N[*:1]; X3 = CCCCC(N[*:1])C(=O)C(=O)[*:2]; Hyp = O=C(O)[C@@H]1C[C@@H](O)CN1; X2 = CCCC(N[*:1])C(=O)C(=O)[*:2]; Chg = N[C@H](C(=O)O)C1CCCCC1; Phg = N[C@H](C(=O)O)c1ccccc1; Tle = CC(C)(C)[C@H](N)C(=O)O; Boc = CC(C)(C)OC(=O)*; tBu = CC(C)(C)*
What was measured:
NS3 = NS3 (Hepatitis C virus, UniProt A3EZJ3); test: Binding affinity to HCV NS3 serine protease; design: species or system Hepacivirus hominis
NS3, sequence (A3EZJ3 whole entry): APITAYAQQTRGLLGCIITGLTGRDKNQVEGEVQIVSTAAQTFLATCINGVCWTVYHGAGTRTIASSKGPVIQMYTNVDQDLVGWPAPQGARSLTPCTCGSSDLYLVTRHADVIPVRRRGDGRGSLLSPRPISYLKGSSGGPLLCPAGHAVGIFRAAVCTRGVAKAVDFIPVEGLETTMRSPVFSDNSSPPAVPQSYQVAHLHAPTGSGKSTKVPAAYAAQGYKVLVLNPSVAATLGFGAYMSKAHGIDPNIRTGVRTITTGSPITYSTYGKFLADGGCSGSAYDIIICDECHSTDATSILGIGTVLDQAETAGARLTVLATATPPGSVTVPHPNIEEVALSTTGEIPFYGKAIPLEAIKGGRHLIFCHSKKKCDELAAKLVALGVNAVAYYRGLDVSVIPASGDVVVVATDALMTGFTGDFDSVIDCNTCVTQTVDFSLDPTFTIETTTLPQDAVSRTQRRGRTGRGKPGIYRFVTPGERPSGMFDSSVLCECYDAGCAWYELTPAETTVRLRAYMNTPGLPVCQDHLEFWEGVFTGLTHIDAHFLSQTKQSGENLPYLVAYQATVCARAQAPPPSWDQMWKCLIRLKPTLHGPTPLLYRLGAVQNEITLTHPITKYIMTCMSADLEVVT

Hepatitis C virus = test: Inhibition of HCV replicon; format: functional, Hepacivirus hominis
[1] = Cmax in monkey at 1 mg/kg, sc; format: ADME, organism-based, Macaca mulatta; design: dose 1 mg/kg, route subcutaneous; details: rhesus monkey, in vivo
[2] = Half life in monkey at 1 mg/kg, iv; format: ADME, organism-based, Macaca mulatta; design: dose 1 mg/kg, route intravenous; details: rhesus monkey, in vivo
[3] = Oral bioavailability in rat at 10 mg/kg, sc; format: ADME, organism-based; details: in vivo, subcutaneous
[4] = AUC in monkey at 1 mg/kg, sc; format: ADME, organism-based, Macaca mulatta; design: dose 1 mg/kg, route subcutaneous; details: rhesus monkey, plasma
[5] = AUC in rat at 10 mg/kg, po; format: ADME, organism-based; design: dose 10 mg/kg, route oral; details: plasma
[6] = Cmax in rat at 10 mg/kg, po; format: ADME, organism-based; design: dose 10 mg/kg, route oral; details: in vivo
[7] = AUC in monkey at 3 mg/kg, po; format: ADME, organism-based, Macaca mulatta; design: dose 3 mg/kg, route oral; details: rhesus monkey, plasma
[8] = Cmax in monkey at 3 mg/kg, po; format: ADME, organism-based, Macaca mulatta; design: dose 3 mg/kg, route oral; details: rhesus monkey, in vivo
[9] = Oral bioavailability in rat at 10 mg/kg, po; format: ADME, organism-based; details: in vivo
[10] = Half life in rat at 5 mg/kg, iv; format: ADME, organism-based; design: dose 5 mg/kg, route intravenous; details: in vivo
[11] = Clearance in monkey; format: ADME, organism-based, Macaca mulatta; details: rhesus monkey, in vivo
[12] = AUC in rat at 10 mg/kg, sc; format: ADME, organism-based; design: dose 10 mg/kg, route subcutaneous; details: plasma
[13] = AUC in monkey at 1 mg/kg, iv; format: ADME, organism-based, Macaca mulatta; design: dose 1 mg/kg, route intravenous; details: rhesus monkey, plasma
[14] = Clearance in rat; format: ADME, organism-based; details: in vivo
[15] = Selectivity for HCV NS3 serine protease over HNE
[16] = Cmax in rat at 10 mg/kg, sc; format: ADME, organism-based; design: dose 10 mg/kg, route subcutaneous; details: in vivo
[17] = AUC in rat at 5 mg/kg, iv; format: ADME, organism-based; design: dose 5 mg/kg, route intravenous; details: plasma
[18] = Oral bioavailability in monkey at 3 mg/kg, po; format: ADME, organism-based, Macaca mulatta; details: rhesus monkey, in vivo
[19] = Oral bioavailability in monkey at 1 mg/kg, sc; format: ADME, organism-based, Macaca mulatta; details: rhesus monkey, in vivo, subcutaneous

Compound	Ki (NS3)	IC90 (Hepatitis C virus)	Selectivity ratio [15]	other results
CCCC(NC(=O)[C@@H]1[C@H]2CC(C)(C)C[C@H]2CN1C(=O)[C@@H](NC(=O)OCC(C)C)C(C)(C)C)C(=O)C(=O)NCC(=O)N[C@H](C(=O)N(C)C)c1ccccc1 (some centres undefined)	15 nM	900 nM	–	–
CN(C)C(=O)[C@@H](NC(=O)CNC(=O)C(=O)C(CC1CC1)NC(=O)[C@@H]1[C@@H]2[C@H](CN1C(=O)[C@@H](NC(=O)OC(C)(C)C)C(C)(C)C)C2(C)C)c1ccccc1 (stereo partly drawn) (Boc-[Tle][Pro(3R,4S-CMe2)][X1]G[Phg]-NMe2)	3.8 nM	100 nM	1000	Cmax [1]: 1600 nM; half-life [2]: 5.3 h; bioavailability [3]: 100%; AUC [4]: 5.6 µM·h; AUC [5]: 0.35 µM·h; Cmax [6]: 120 nM; AUC [7]: 0.03 µM·h; Cmax [8]: 30 nM; bioavailability [9]: 4%; half-life [10]: 5.2 h; clearance [11]: 6.9 mL/min/kg; AUC [12]: 19.5 µM·h; AUC [13]: 3.4 µM·h; clearance [14]: 24 mL/min/kg; Cmax [16]: 4370 nM; AUC [17]: 4.7 µM·h; bioavailability [18]: 1%; bioavailability [19]: 100%
CCCC(NC(=O)[C@@H]1[C@@H]2[C@H](CN1C(=O)[C@@H](NC(=O)OCC(C)C)C(C)(C)C)C2(C)C)C(=O)C(=O)NCC(=O)N[C@H](C(=O)N(C)C)c1ccccc1 (stereo partly drawn) (Isobutyloxycarbonyl-[Tle][Pro(3R,4S-CMe2)][X2]G[Phg]-NMe2)	16 nM	350 nM	81	–
CCCC(NC(=O)[C@@H]1C[C@@H](C)CN1C(=O)[C@@H](NC(=O)OCC(C)C)C(C)(C)C)C(=O)C(=O)NCC(=O)N[C@H](C(=O)N(C)C)c1ccccc1 (stereo partly drawn) (Isobutyloxycarbonyl-[Tle][Pro(4R-Me)][X2]G[Phg]-NMe2)	140 nM	–	–	–
CCCC(NC(=O)[C@@H]1CC2(CN1C(=O)[C@@H](NC(=O)OCC(C)C)C1CCCCC1)SCCS2)C(=O)C(=O)NCC(=O)N[C@H](C(=O)N(C)C)c1ccccc1 (some centres undefined) (Isobutyloxycarbonyl-[Chg][Pro(4,4-SCH2CH2S)][X2]G[Phg]-NMe2)	26 nM	–	–	–
CCCC(NC(=O)[C@@H]1CC2(CCCC2)CN1C(=O)[C@@H](NC(=O)OCC(C)C)C1CCCCC1)C(=O)C(=O)NCC(=O)N[C@H](C(=O)N(C)C)c1ccccc1 (some centres undefined)	26 nM	–	–	–
CCCC(NC(=O)[C@@H]1[C@H]2CC(C)(C)O[C@H]2CN1C(=O)[C@@H](NC(=O)OCC(C)C)C(C)(C)C)C(=O)C(=O)NCC(=O)N[C@H](C(=O)N(C)C)c1ccccc1 (some centres undefined)	10 nM	1800 nM	–	–
CCCCC(NC(=O)[C@@H]1[C@@H]2[C@H](CN1C(=O)[C@@H](NC(=O)OC(C)(C)C)C(C)(C)C)C2(C)C)C(=O)C(=O)NCC(=O)N[C@H](C(=O)N(C)C)c1ccccc1 (stereo partly drawn) (Boc-[Tle][Pro(3R,4S-CMe2)][X3]G[Phg]-NMe2)	10 nM	400 nM	964	–
CCCC(NC(=O)[C@@H]1[C@@H]2[C@H](CN1C(=O)[C@@H](NC(=O)OC(C)(C)C)C(C)(C)C)C2(C)C)C(=O)C(=O)NCC(=O)N[C@H](C(=O)N(C)C)c1ccccc1 (stereo partly drawn) (Boc-[Tle][Pro(3R,4S-CMe2)][X2]G[Phg]-NMe2)	14 nM	250 nM	147	–
CCCC(NC(=O)[C@@H]1CCCN1C(=O)[C@@H](NC(=O)OCC(C)C)C1CCCCC1)C(=O)C(=O)NCC(=O)N[C@H](C(=O)N(C)C)c1ccccc1 (some centres undefined) (Isobutyloxycarbonyl-[Chg]P[X2]G[Phg]-NMe2)	10000 nM	–	–	–
CCCC(NC(=O)[C@@H]1C[C@@H](OC(C)(C)C)CN1C(=O)[C@@H](NC(=O)OCC(C)C)C(C)(C)C)C(=O)C(=O)NCC(=O)N[C@H](C(=O)N(C)C)c1ccccc1 (some centres undefined) (Isobutyloxycarbonyl-[Tle][Hyp](tBu)[X2]G[Phg]-NMe2)	19 nM	2000 nM	–	–
CCCC(NC(=O)[C@@H]1CC(C)(C)CN1C(=O)[C@@H](NC(=O)OCC(C)C)C(C)(C)C)C(=O)C(=O)NCC(=O)N[C@H](C(=O)N(C)C)c1ccccc1 (some centres undefined) (Isobutyloxycarbonyl-[Tle][Pro(4,4-Me2)][X2]G[Phg]-NMe2)	36 nM	–	–	–
CCCC(NC(=O)[C@@H]1[C@@H]2[C@H](CN1C(=O)[C@@H](NC(=O)OCC(C)C)C1CCCCC1)C2(C)C)C(=O)C(=O)NCC(=O)N[C@H](C(=O)N(C)C)c1ccccc1 (stereo partly drawn) (Isobutyloxycarbonyl-[Chg][Pro(3R,4S-CMe2)][X2]G[Phg]-NMe2)	10 nM	200 nM	4	–
CN(C)C(=O)[C@@H](NC(=O)CNC(=O)C(=O)C(CCC(F)(F)F)NC(=O)[C@@H]1[C@@H]2[C@H](CN1C(=O)[C@@H](NC(=O)OC(C)(C)C)C(C)(C)C)C2(C)C)c1ccccc1 (stereo partly drawn) (Boc-[Tle][Pro(3R,4S-CMe2)][X4]G[Phg]-NMe2)	2 nM	400 nM	4600	–
CCCC(NC(=O)[C@@H]1CC2(CN1C(=O)[C@@H](NC(=O)OCC(C)C)C1CCCCC1)SCCCS2)C(=O)C(=O)NCC(=O)N[C@H](C(=O)N(C)C)c1ccccc1 (some centres undefined) (Isobutyloxycarbonyl-[Chg][Pro(4,4-S(CH2)3S)][X2]G[Phg]-NMe2)	28 nM	–	–	–
CCCC(NC(=O)[C@@H]1C[C@@H](SC(C)(C)C)CN1C(=O)[C@@H](NC(=O)OCC(C)C)C(C)(C)C)C(=O)C(=O)NCC(=O)N[C@H](C(=O)N(C)C)c1ccccc1 (some centres undefined)	120 nM	–	–	–
